The text below walks through data of paper PMC2248166, “Quantitative peptide binding motifs for 19 human and mouse MHC class I molecules derived using positional scanning combinatorial peptide libraries” (Immunome Research, 2008).

Where a SMILES comes first, the peptide text is derived from it.

As usually defined, the IC50 is the concentration needed to halve the response being measured.

The target in this assay is HLA A*3201 (Homo sapiens, UniProt P04439, A270S/D101S/D185E/E176V/E277Q/F133L/G103R/G107R/G231S/H175R/I121M/I218V/I322F/K168Q/L105A/L300P/L318F/M331R/P208A/P217A/Q94H/R106L/R138Q/S129P/T104I/T323A/T345S/V100E/V321M/V358M). Nature of the assay: biochemical. Type of assay: binding.
Turning to `CC[C@H](C)[C@H](NC(=O)[C@@H](NC(=O)[C@H](CC(C)C)NC(=O)[C@@H](NC(=O)[C@H](CCCNC(=N)N)NC(=O)[C@H](CC(N)=O)NC(=O)[C@@H](NC(=O)[C@@H](NC(=O)CN)[C@@H](C)O)[C@@H](C)CC)[C@@H](C)CC)C(C)C)C(=O)O` [3102.0337] (H-GTINRILVI-OH), it took 15 nM to reach half-maximal inhibition (IC50). In turn, `CC[C@H](C)[C@H](N)C(=O)N[C@H](C(=O)N[C@@H](CC(C)C)C(=O)N[C@@H](Cc1c[nH]cn1)C(=O)N[C@@H](CC(C)C)C(=O)N[C@@H](C)C(=O)N[C@@H](CS)C(=O)NCC(=O)N[C@@H](Cc1ccccc1)C(=O)O)[C@@H](C)O` [3102.0338] (H-ITLHLACGF-OH) returned an IC50 of 1.4 nM. Take `CSCC[C@H](N)C(=O)N[C@H](C(=O)N[C@@H](CS)C(=O)NCC(=O)N[C@@H](CCC(N)=O)C(=O)N1CCC[C@H]1C(=O)N[C@@H](CC(C)C)C(=O)N[C@@H](CO)C(=O)N[C@@H](CC(C)C)C(=O)O)[C@@H](C)O` [3102.0339] (H-MTCGQPLSL-OH): the IC50 worked out at 5.6 nM. `CC[C@H](C)[C@H](NC(=O)[C@H](CC(C)C)NC(=O)[C@H](Cc1c[nH]cn1)NC(=O)[C@H](Cc1ccccc1)NC(=O)[C@H](CC(N)=O)NC(=O)[C@H](Cc1ccccc1)NC(=O)[C@@H](NC(=O)[C@@H](NC(=O)[C@@H](N)CCCNC(=N)N)[C@@H](C)O)[C@@H](C)CC)C(=O)O` [3102.0342] (H-RTIFNFHLI-OH) gave a half-maximal inhibitory concentration (IC50) of 2.1 nM.

As for `CC(C)C[C@H](NC(=O)[C@H](CC(N)=O)NC(=O)[C@H](Cc1ccc(O)cc1)NC(=O)[C@H](Cc1ccc(O)cc1)NC(=O)[C@@H](NC(=O)[C@H](Cc1ccc(O)cc1)NC(=O)[C@H](Cc1ccccc1)NC(=O)[C@H](CC(C)C)NC(=O)[C@@H](N)CCCCN)C(C)C)C(=O)O` [3102.0343] (H-KLFYVYYNL-OH), the IC50 was 0.34 nM.

Consider `CC[C@H](C)[C@H](NC(=O)[C@H](CC(N)=O)NC(=O)[C@@H](NC(=O)[C@@H](NC(=O)[C@H](Cc1ccccc1)NC(=O)[C@@H](NC(=O)[C@H](C)NC(=O)[C@H](CC(C)C)NC(=O)[C@H](C)N)[C@@H](C)O)[C@@H](C)O)C(C)C)C(=O)O` [3102.0344] (H-ALATFTVNI-OH), for which 6.1 nM corresponded to half-maximal inhibition (IC50). In turn, `CC[C@H](C)[C@H](NC(=O)[C@@H](NC(=O)[C@H](Cc1ccc(O)cc1)NC(=O)[C@H](CO)NC(=O)[C@@H](N)CCCCN)[C@@H](C)O)C(=O)N[C@@H](CCCNC(=N)N)C(=O)N[C@H](C(=O)N[C@@H](Cc1ccccc1)C(=O)N[C@@H](Cc1ccccc1)C(=O)O)C(C)C` [3102.0345] (H-KSYTIRVFF-OH) had an IC50 of 1.1 nM. Under `CC[C@H](C)[C@H](N)C(=O)N[C@H](C(=O)N[C@@H](Cc1ccccc1)C(=O)N[C@@H](CC(=O)O)C(=O)N[C@H](C(=O)N[C@@H](Cc1ccc(O)cc1)C(=O)N[C@@H](Cc1ccccc1)C(=O)N[C@@H](C)C(=O)N[C@H](C(=O)O)[C@@H](C)CC)[C@@H](C)CC)[C@@H](C)CC` [3102.0346] (H-IIFDIYFAI-OH) stands 0.93 nM.

Regarding `CSCC[C@H](NC(=O)[C@H](Cc1ccc(O)cc1)NC(=O)[C@H](Cc1ccccc1)NC(=O)[C@H](CC(C)C)NC(=O)[C@@H](N)CCSC)C(=O)N[C@@H](CC(=O)O)C(=O)N[C@@H](CC(C)C)C(=O)N[C@@H](CO)C(=O)N[C@@H](Cc1ccc(O)cc1)C(=O)O` [3102.0347] (H-MLFYMDLSY-OH), inhibition was half-maximal at 1.2 nM (IC50). Under `CC[C@H](C)[C@H](NC(=O)[C@H](Cc1c[nH]cn1)NC(=O)[C@@H](NC(=O)[C@H](CO)NC(=O)[C@@H](NC(=O)[C@H](C)NC(=O)[C@H](CO)NC(=O)[C@H](CC(C)C)NC(=O)[C@@H](N)CO)C(C)C)C(C)C)C(=O)O` [3102.0349] (H-SLSAVSVHI-OH) stands 34 nM. In turn, `CC[C@H](C)[C@H](NC(=O)[C@@H](NC(=O)[C@H](CO)NC(=O)[C@H](CC(C)C)NC(=O)[C@@H](NC(=O)[C@H](CCSC)NC(=O)[C@H](CCSC)NC(=O)[C@@H](NC(=O)[C@H](C)N)[C@@H](C)CC)[C@@H](C)CC)[C@@H](C)O)C(=O)O` [3102.0350] (H-AIMMILSTI-OH) registered an IC50 of 2.5 nM.

In turn, `CC[C@H](C)[C@H](N)C(=O)N[C@@H](CCSC)C(=O)N[C@@H](CCSC)C(=O)N[C@H](C(=O)N[C@@H](CC(C)C)C(=O)N[C@@H](CO)C(=O)N[C@H](C(=O)N[C@H](C(=O)N[C@H](C(=O)O)[C@@H](C)CC)[C@@H](C)CC)[C@@H](C)O)[C@@H](C)CC` [3102.0351] (H-IMMILSTII-OH) yielded an IC50 of 11 nM. `CC[C@H](C)[C@H](NC(=O)[C@H](CC(=O)O)NC(=O)[C@H](CC(C)C)NC(=O)[C@@H](NC(=O)[C@@H](N)CC(C)C)[C@@H](C)O)C(=O)N[C@@H](Cc1ccccc1)C(=O)N[C@@H](Cc1ccc(O)cc1)C(=O)N[C@@H](CC(C)C)C(=O)N[C@@H](Cc1ccccc1)C(=O)O` [3102.0354] (H-LTLDIFYLF-OH) came in with an IC50 of 4.4 nM. `CC[C@H](C)[C@H](NC(=O)[C@@H](NC(=O)[C@@H](NC(=O)[C@H](CC(=O)O)NC(=O)[C@@H](NC(=O)[C@H](Cc1ccccc1)NC(=O)[C@@H](NC(=O)[C@@H](NC(=O)[C@@H](N)CO)[C@@H](C)CC)C(C)C)C(C)C)C(C)C)[C@@H](C)CC)C(=O)O` [3102.0355] (H-SIVFVDVII-OH): 59 nM corresponded to half-maximal inhibition (IC50). In turn, `CC[C@H](C)[C@H](NC(=O)CNC(=O)[C@@H](NC(=O)[C@@H](NC(=O)[C@H](CC(C)C)NC(=O)CNC(=O)[C@H](CS)NC(=O)[C@@H](NC(=O)[C@@H](N)C(C)C)[C@@H](C)CC)[C@@H](C)CC)C(C)C)C(=O)O` [3102.0356] (H-VICGLIVGI-OH) yielded an IC50 of 26 nM.

Compound `CC[C@H](C)[C@H](NC(=O)[C@H](CO)NC(=O)[C@@H](NC(=O)[C@@H](NC(=O)[C@H](Cc1c[nH]c2ccccc12)NC(=O)[C@H](CCCCN)NC(=O)[C@H](CCSC)NC(=O)[C@H](CCSC)NC(=O)[C@@H](N)CCSC)[C@@H](C)CC)[C@@H](C)CC)C(=O)O` [3102.0357] (H-MMMKWIISI-OH) yielded an IC50 of 0.17 nM. The result for `CC[C@H](C)[C@H](NC(=O)[C@H](CC(C)C)NC(=O)[C@H](CC(N)=O)NC(=O)[C@H](C)NC(=O)[C@H](Cc1ccccc1)NC(=O)[C@H](CCCNC(=N)N)NC(=O)[C@H](CO)NC(=O)[C@@H](NC(=O)[C@@H](N)CCCNC(=N)N)[C@@H](C)CC)C(=O)O` [3102.0360] (H-RISRFANLI-OH) reads 6.2 nM. Regarding `CC[C@H](C)[C@H](N)C(=O)N[C@H](C(=O)N[C@@H](CCSC)C(=O)N[C@H](C(=O)N[C@@H](CC(N)=O)C(=O)N[C@@H](CO)C(=O)N[C@@H](CC(C)C)C(=O)N[C@H](C(=O)N[C@@H](Cc1ccc(O)cc1)C(=O)O)[C@@H](C)O)C(C)C)[C@@H](C)O` [3102.0363] (H-ITMVNSLTY-OH), the IC50 was determined as 96 nM. Under `CC[C@H](C)[C@H](NC(=O)[C@H](CO)NC(=O)[C@@H](N)CCCCN)C(=O)N[C@@H](CC(N)=O)C(=O)N[C@H](C(=O)N[C@@H](CCC(=O)O)C(=O)N[C@@H](Cc1ccc(O)cc1)C(=O)N[C@@H](CCCNC(=N)N)C(=O)N[C@@H](Cc1ccccc1)C(=O)O)C(C)C` [3102.0364] (H-KSINVEYRF-OH) stands 1.5 nM. The compound `CSCC[C@H](NC(=O)[C@@H](N)CCCCN)C(=O)N[C@@H](CC(=O)O)C(=O)N[C@@H](CC(N)=O)C(=O)NCC(=O)N[C@H](C(=O)N[C@@H](CC(C)C)C(=O)N[C@@H](CCC(=O)O)C(=O)N[C@@H](Cc1ccccc1)C(=O)O)[C@@H](C)O` [3102.0365] (H-KMDNGTLEF-OH) showed a half-inhibitory concentration (IC50) of 0.92 nM.
